Experimental data from US20240398767A1, “INHIBITORS OF THE MTDH-SND1 PROTEIN COMPLEX FOR CANCER THERAPY” (The Trustees of Princeton University, priority 2021, published 2024).

Legend:
[1] = test system: E0771-OVA Tap1/2 KD cells; test: E0771-OVA Tap1/2 KD cells / OT-I splenocyte co-culture; type: cell-based, mouse
Source text: For FIGS. 33B-33D, E0771-OVA cells with (shTap1/2) or without (shCtrl) Tap1/2 knockdown were co-cultured with OT-I splenocytes with the ratio of 1:10 (tumor cells:splenocytes). Data represent mean±SEM. n=3 independent experiments. Significance determined by one-way ANOVA analysis with Sidak's test for multiple comparisons.
FIG. 33B, 24 hr after co-culture, tumor cells were collected for examining OVA (H-2K^b-SIINFEKL) expression.
FIG. 33C, 24 hr after co-culture, tumor cells were collected for examining MHC-I expression.
FIG. 33D, 24 hr after co-culture, splenocytes were collected for examining CD137 expression.
FIG. 33E, The same co-culture experiment as in FIG. 33B were performed. The live tumor cells were indicated by luciferase signal. The percentage of live cells were determined as normalized to the non-co-culture control. Data represent mean±SEM. n=5 independent experiments. Significance determined by one-way ANOVA analysis with Sidak's test for multiple comparisons.
MTDH-SND1 suppresses antigen presentation by reducing Tap1/2. To confirm that MTDH-SND1 drives immune evasion through suppressing the Tap1/2 pathway, antigen presentation-deficient cells were generated by knocking down Tap1/2^20. E0771-OVA cells were transduced with lentiviruses expressing Tap1/2-targeting shRNAs. […]

[2] = test system: PyMT tumors with MTDH KO or SND1 KD; test: PyMT tumor models with MTDH KO or SND1 KD in FVB mice; type: in vivo, FVB female mice; settings: 6 weeks treatment
Procedure: FIG. 5G, 10 k of the cells of FIG. 5F were inoculated into FVB female mice and treated with or without C26-A6 after primary tumors reached to approximately 2 mm in diameter. 6 weeks after treatment, tumor size was determined. Vehicle, n=10 mice; C26-A6, n=10 mice.
FIG. 5H, 10 k of the cells of FIG. 5F were inoculated into FVB female mice and treated with or without C26-A6 after primary tumors reached to approximately 2 mm in diameter. 6 weeks after treatment, spontaneous lung metastasis was determined. The lung metastatic areas of the representative lungs were highlighted with red. Vehicle, n=10 mice; C26-A6, n=10 mice. Size bar, 5 mm.
FIG. 5J, 10 k of the cells of FIG. 5I were injected into FVB females and treated similarly as in FIGS. 5G, 5H. Tumor size was assessed. Vehicle, n=10 mice; C26-A6, n=10 mice.
FIG. 5K, 10 k of the cells of FIG. 5I were injected into FVB females and treated similarly as in FIGS. 5G, 5H. Lung metastasis was assessed. The lung metastatic areas of the representative lungs were highlighted with red. Vehicle, n=10 mice; C26-A6, n=10 mice. Size bar, 5 mm.
Next, to further validate that the anti-tumor effect of C26-A6 depends on its on-target effects by disrupting MTDH-SND1 complex, PyMT; UBC-Cre^ERT+/−;Mtdh^fl/fl tumor cells with Mtdh depletion or with endogenous Snd1 KD were employed for the similar assay as in FIG. 5-1a. […]

COc1ccc(Cl)cc1S(=O)(=O)Nc1cccn2nc(C)nc12 [Analog C26-A6]
immune killing (live tumor cells) [1]: no boosting of immune killing | antigen presentation and T cell activation ([1]; 24 hr co-culture): no such change | tumor growth or metastasis [2]: did not further inhibit tumor growth or metastasis
